Laboratory results as given in ChEMBL document CHEMBL1201862, “PubChem BioAssay data set” (2004).
The source made the active and inactive calls. Rule as the data show it, for most assays here: actives have a measured EC50 and inactives only a lower limit.

Columns and labels:
HEK293 = assay: inhibitors of LMP1-driven NF-kB reporter, dose response, cell-based, HEK293, luciferase, cherry-pick (AID 588343); format: functional; settings: Homo sapiens
[1] = target: T1, RNA-binding protein pos-1 (Caenorhabditis elegans, UniProt G5EF15); assay: inhibitors of POS-1/mex-3 RNA binding, dose response, biochemical, fluorescence polarization (AID 1964);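 also: purified POS-1 fused to maltose binding protein made in E. coli; potency of compounds blocking POS-1 binding to fluorescent RNA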
T1 sequence (G5EF15 whole entry): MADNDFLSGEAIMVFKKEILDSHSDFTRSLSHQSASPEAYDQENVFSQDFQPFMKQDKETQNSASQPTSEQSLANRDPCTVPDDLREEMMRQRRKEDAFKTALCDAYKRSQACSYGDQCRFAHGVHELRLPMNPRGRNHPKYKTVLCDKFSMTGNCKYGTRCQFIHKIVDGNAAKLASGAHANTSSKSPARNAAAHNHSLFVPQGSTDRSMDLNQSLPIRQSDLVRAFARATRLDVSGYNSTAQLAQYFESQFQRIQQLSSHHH

[2] = target: T2, Zinc finger protein mex-5 (Caenorhabditis elegans, UniProt Q9XUB2); assay: MEX-5/TCR-2 RNA interaction inhibitors, dose response, biochemical, C. elegans, fluorescence polarization (AID 1960)
T2 sequence (Q9XUB2 whole entry): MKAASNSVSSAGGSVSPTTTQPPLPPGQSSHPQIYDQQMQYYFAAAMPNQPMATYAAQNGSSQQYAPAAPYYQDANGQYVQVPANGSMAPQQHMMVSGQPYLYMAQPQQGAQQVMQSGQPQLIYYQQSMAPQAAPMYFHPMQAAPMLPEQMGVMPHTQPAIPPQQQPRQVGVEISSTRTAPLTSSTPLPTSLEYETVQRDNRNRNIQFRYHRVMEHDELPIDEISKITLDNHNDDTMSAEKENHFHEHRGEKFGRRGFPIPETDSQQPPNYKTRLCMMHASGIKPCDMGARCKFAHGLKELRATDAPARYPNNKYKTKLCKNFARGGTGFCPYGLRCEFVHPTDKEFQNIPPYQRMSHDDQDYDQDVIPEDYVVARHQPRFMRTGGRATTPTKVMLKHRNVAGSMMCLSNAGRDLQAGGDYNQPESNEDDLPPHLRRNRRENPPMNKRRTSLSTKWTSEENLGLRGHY

Large T antigen = Large T antigen (Simian virus 40, UniProt P03070); format: functional, Betapolyomavirus macacae;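 also: Confirmatory-stage PubChem screen for compounds that inhibit SV40 T antigen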
Cytochrome P450 3A4 = Cytochrome P450 3A4 (Homo sapiens, UniProt P08684); settings: Potency;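 also: confirmatory qHTS run detecting inhibitors and substrates of CYP3A4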
[3] = target: T3, Heat shock factor protein 1 (Mus musculus, UniProt P38532); assay: inhibition of MG132-induced HSE-luciferase signal, confirmation, cell-based, NIH3T3, luminescence, dose retest (AID 2382); format: functional;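 also: NIH3T3 fibroblasts with HSF1-driven luciferase reporter stressed by proteasome inhibitor MG132; luminescence from HSF1-driven luciferase expression after 8 hours of MG132 stress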
T3 sequence (P38532 whole entry): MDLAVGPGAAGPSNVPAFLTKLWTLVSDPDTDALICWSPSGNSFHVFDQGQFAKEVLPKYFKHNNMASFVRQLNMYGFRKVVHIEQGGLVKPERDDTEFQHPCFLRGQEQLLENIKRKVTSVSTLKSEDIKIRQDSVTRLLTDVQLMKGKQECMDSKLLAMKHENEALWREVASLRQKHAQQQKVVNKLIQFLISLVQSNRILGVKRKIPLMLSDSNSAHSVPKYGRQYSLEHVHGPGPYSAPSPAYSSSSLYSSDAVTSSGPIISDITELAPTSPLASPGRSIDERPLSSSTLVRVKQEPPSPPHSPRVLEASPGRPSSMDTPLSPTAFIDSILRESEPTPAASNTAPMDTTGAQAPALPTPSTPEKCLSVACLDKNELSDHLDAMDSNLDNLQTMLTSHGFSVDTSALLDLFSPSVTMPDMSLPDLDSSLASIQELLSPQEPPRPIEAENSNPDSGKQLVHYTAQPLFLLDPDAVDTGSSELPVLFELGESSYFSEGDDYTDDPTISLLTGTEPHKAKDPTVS

[4] = target: Luciferin 4-monooxygenase (Photinus pyralis, UniProt P08659); assay: firefly luciferase enzyme inhibitors, dose response, biochemical, luminescence (AID 1891)
[5] = Luminescence Cell-Based Dose Confirmation HTS to Identify Inhibitors of Platelet Dense Granule Release. [Related pubchem assays: 1663 (Primary HTS), 1678 (Summary of Project)]; format: functional

Large T antigen, sequence (P03070 whole entry): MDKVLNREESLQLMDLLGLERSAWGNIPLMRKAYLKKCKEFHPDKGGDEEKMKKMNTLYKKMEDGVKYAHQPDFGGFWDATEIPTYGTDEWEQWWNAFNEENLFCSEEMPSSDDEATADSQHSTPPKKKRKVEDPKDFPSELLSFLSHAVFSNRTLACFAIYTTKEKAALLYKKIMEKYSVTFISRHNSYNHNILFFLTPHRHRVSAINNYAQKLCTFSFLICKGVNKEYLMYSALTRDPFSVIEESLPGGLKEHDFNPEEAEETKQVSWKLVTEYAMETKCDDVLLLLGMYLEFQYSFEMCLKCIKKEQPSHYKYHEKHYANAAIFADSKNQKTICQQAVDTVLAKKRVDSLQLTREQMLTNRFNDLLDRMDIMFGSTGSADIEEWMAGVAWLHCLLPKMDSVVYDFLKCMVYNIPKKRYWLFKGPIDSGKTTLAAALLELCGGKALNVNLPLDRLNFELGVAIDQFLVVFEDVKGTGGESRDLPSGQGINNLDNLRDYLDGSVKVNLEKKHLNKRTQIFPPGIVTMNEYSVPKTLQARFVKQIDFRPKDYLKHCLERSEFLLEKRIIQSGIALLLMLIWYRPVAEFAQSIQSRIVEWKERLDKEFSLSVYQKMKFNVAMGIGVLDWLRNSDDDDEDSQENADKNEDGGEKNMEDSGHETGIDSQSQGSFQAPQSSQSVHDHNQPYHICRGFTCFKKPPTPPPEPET
Cytochrome P450 3A4, sequence (P08684 whole entry): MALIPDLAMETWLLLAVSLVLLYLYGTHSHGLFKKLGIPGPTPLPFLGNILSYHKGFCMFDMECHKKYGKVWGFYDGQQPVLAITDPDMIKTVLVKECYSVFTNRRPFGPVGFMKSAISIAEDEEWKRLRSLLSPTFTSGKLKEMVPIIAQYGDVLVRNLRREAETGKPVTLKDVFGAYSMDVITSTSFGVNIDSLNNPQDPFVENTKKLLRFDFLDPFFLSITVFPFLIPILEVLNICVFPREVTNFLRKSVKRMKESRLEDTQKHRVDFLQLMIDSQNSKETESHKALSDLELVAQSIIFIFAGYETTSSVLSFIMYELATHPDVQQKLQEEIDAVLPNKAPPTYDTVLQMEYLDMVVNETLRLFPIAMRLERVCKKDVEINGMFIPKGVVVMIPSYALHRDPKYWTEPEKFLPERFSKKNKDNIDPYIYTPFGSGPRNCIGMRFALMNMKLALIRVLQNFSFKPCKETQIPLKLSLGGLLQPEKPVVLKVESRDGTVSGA
Luciferin 4-monooxygenase, sequence (P08659 whole entry): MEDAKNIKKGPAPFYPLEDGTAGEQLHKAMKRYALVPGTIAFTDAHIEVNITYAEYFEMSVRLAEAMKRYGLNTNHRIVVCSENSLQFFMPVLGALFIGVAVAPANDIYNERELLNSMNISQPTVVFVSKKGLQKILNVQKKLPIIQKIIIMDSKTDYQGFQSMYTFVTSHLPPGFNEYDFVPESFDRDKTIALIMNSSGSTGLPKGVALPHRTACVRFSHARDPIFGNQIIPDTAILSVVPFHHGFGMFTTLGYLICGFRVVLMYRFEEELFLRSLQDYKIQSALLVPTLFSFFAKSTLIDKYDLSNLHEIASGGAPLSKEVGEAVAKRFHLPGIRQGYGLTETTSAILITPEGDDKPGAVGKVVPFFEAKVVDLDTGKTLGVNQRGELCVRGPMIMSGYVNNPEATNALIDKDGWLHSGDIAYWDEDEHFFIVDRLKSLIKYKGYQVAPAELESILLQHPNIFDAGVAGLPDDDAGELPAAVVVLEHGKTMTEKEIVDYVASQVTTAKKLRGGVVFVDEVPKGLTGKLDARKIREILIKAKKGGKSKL

Compound: O=C(CSc1nc2ccccc2c(=O)n1CCCN1CCOCC1)Nc1ccc(Br)cc1
- AC50 (HEK293): > 350 µM (inactive)

Compound: CCOc1ccc(OCc2cccc(C(=O)N3CCCCCC3)c2)cc1
- AC50 (HEK293): 4.36 µM (active)

Compound: O=C1N=C(Nc2ccccc2Cl)S/C1=C\c1cc([N+](=O)[O-])ccc1O
- EC50 [1]: 10.9 µM (active)
- EC50 [2]: > 300 µM (not active)

Compound: CCOC(=O)C1Nc2c(F)cc(C)cc2C2C=CCC12 (stereo not given)
- EC50 [1]: > 300 µM (not active)
- EC50 [2]: > 300 µM (not active)

Compound: Cc1nnc(O)nc1Nc1ccc(O)cc1
- IC50 (Large T antigen): 4.52 µM (active)

Compound: COc1ccc(C2C(C#N)=C(/N=C/N3CCN(C)CC3)OC3=C2C(=O)CC(C)(C)C3)cc1OC (stereo not given)
- EC50 [1]: > 300 µM (not active)
- EC50 [2]: > 300 µM (not active)

Compound: COC(=O)[C@]1(C)CC[C@@]2(C)CC[C@@]3(C)C4=CCc5c(cc(O)c(O)c5C)[C@]4(C)CC[C@@]3(C)C2C1 (stereo not given in full)
- AC50 (Cytochrome P450 3A4): 39.8 µM (inconclusive)

Compound: COc1ccc(C(=O)NNC(=O)c2cnccn2)cc1[N+](=O)[O-]
- EC50 [1]: 25.3 µM (active)
- EC50 [3]: > 195 µM (not active)
- EC50 [2]: 1.72 µM (active)

Compound: CC1CC2C3CCC4=CC(=O)C=C[C@@]4(C)[C@]3(F)C(O)C[C@]2(C)[C@]1(O)C(=O)COP(=O)(O)O (stereo not given in full)
- AC50 (Cytochrome P450 3A4): 39.8 µM (inconclusive)

Compound: Cc1ccc(S(=O)(=O)NNc2nc3ccccc3nc2C(F)(F)F)cc1
- EC50 [1]: 39.8 µM (active)
- EC50 [2]: 21.5 µM (inconclusive)

Compound: O=c1oc2ccccc2c(O)c1/C=N/c1ccccn1
- AC50 (HEK293): 162 µM (active)
- EC50 [4]: > 112 µM (not active)
- EC50 [5]: > 112 µM (not active)

Compound: COc1ccc(/C=N/NC(=O)CCc2nnc(O)nc2O)cc1O
- IC50 (Large T antigen): 28.9 µM (active)
